The values that follow are results of earlier work, collected in patent US8079695B2, “Inkjet inks having improved print uniformity” (Eastman Kodak Company, priority 2008, dated 2011).

The conditions of this data set: measured and predicted values (handbooks or ACD/LABS v8.14); lowest pKa given for di-carboxylic acids.

For `C=CC(=O)NC(C)(C)CS(=O)(=O)O` [2-acrylamido-2-methylpropane sulfonic acid], the pKa is given as 1.7.

As to `C=C(C)C(=O)OCCS(=O)(=O)O` [2-propenoic acid, 2-methyl-, 2-sulfoethyl ester], the pKa is reported as 1.0.

`C=CC(=O)O` [Acrylic acid]: the pKa is listed as 4.3.

With `C=CCS(=O)(=O)O` [Allyl sulfonic acid], the pKa is on record as 1.5.

Regarding `C/C(=C\C(=O)O)C(=O)O` [Mesaconic acid], the pKa is on record as 3.1.

On to `C=C(C)C(=O)O` [Methacrylic acid (MA), Methacrylic acid], for which the pKa is on record as 4.7.

On to `O=C(O)/C=C/Cl` [trans-chloroacrylic acid], for which the pKa is given as 3.7.

For `C=C(Cl)C(=O)O` [α-chloroacrylic acid], the pKa was 3.3.

As a reminder, the pKa is the pH at which an ionisable group is half protonated.
